Test results reported in patent US6737383B1, “Herbicidal oxadiazolidines” (priority 1999, dated 2004).

What was measured:
[1] = tested on: blackgrass; test: Test B pre/postemergence blackgrass; type: in vivo, Alopecurus myosuroides
How it was run: (§1)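 Response is a visual 0-to-10 score relative to untreated plants, where 0 means no effect and 10 means complete control, taken twelve to sixteen days after application. Treatments went onto soil at planting and onto foliage of 1- to 4-leaf plants, using a surfactant-containing non-phytotoxic solvent.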

[2] = tested on: crabgrass; test: Test B pre/postemergence crabgrass; type: in vivo, Digitaria sanguinalis
How it was run: as §1

[3] = tested on: cocklebur; test: Test B pre/postemergence cocklebur; type: in vivo, Xanthium strumarium
How it was run: as §1

[4] = tested on: wild oat; test: Test B pre/postemergence wild oat; type: in vivo, Avena fatua
How it was run: as §1

[5] = tested on: velvetleaf; test: Test B pre/postemergence velvetleaf; type: in vivo, Abutilon theophrasti
How it was run: as §1

[6] = tested on: rape; test: Test B pre/postemergence rape; type: in vivo, Brassica napus
How it was run: as §1

[7] = tested on: bedstraw; test: Test B pre/postemergence bedstraw; type: in vivo, Galium aparine
How it was run: as §1

[8] = tested on: giant foxtail; test: Test B pre/postemergence giant foxtail; type: in vivo, Setaria faberii
How it was run: as §1

[9] = tested on: purple nutsedge; test: Test B pre/postemergence purple nutsedge; type: in vivo, Cyperus rotundus
How it was run: as §1

[10] = tested on: sugar beet; test: Test B pre/postemergence sugar beet; type: in vivo, Beta vulgaris
How it was run: as §1

[11] = tested on: wheat; test: Test B pre/postemergence wheat; type: in vivo, Triticum aestivum
How it was run: as §1

[12] = tested on: pigweed; test: Test B pre/postemergence pigweed; type: in vivo, Amaranthus retroflexus
How it was run: as §1

[13] = tested on: soybean; test: Test B pre/postemergence soybean; type: in vivo, Glycine max
How it was run: as §1

[14] = tested on: morningglory; test: Test B pre/postemergence morningglory; type: in vivo, Ipomoea hederacea
How it was run: as §1

[15] = tested on: corn; test: Test B pre/postemergence corn; type: in vivo, Zea mays
How it was run: as §1

[16] = tested on: surinam grass; test: Test B pre/postemergence surinam grass; type: in vivo, Brachiaria decumbens; conditions: Postemergence
How it was run: as §1

[17] = Postemergence, Rate 62 g/ha, scale 0 to 10, 0 is no effect, 10 is complete control
[18] = Postemergence, Rate 125 g/ha, scale of 0 to 10 where 0 is no effect and 10 is complete control
[19] = Preemergence, Rate 125 g/ha, scale of 0 to 10 where 0 is no effect and 10 is complete control
[20] = Preemergence, Rate 250 g/ha, scale 0 (no effect) to 10 (complete control)
[21] = Rate 62 g/ha, Preemergence, scale 0 to 10
[22] = Rate 250 g/ha, Postemergence, scale 0 to 10, 0 is no effect, 10 is complete control
[23] = Rate 500 g/ha, Postemergence, scale 0 to 10, 0 is no effect, 10 is complete control
[24] = Rate 500 g/ha, Preemergence, scale 0 to 10 (0 no effect, 10 complete control)

CC(CBr)Cn1c(=O)on(C(=O)N(c2ccc(F)cc2)C(C)C)c1=O (centres unmarked) [Compound 752]
2: Blackgrass plant response rating [1, 18] | Velvetleaf plant response rating [5, 22] | Velvetleaf plant response rating [5, 23] | Velvetleaf plant response rating [5, 24] | Plant response rating, Rape [6, 17] | Rape plant response rating [6, 18] | Bedstraw plant response rating [7, 22] | Bedstraw plant response rating [7, 23] | Plant response rating, Redroot pigweed [12, 19] | Plant response rating, Morningglory [14, 17] | Morningglory plant response rating [14, 18] | B. signalgrass plant response rating ([16]; Rate 250 g/ha, scale 0 to 10, 0 is no effect, 10 is complete control)
3: Plant response rating, Crabgrass [2, 17] | Crabgrass plant response rating [2, 18] | Cocklebur plant response rating [3, 18] | Cocklebur plant response rating [3, 23] | Plant response rating, Rape [6, 19] | Plant response rating, Sugarbeets [10, 17] | Sugarbeets plant response rating [10, 20] | Sugarbeets plant response rating [10, 22] | Sugarbeets plant response rating [10, 23] | Sugarbeets plant response rating [10, 24]
9: Plant response rating, Blackgrass [1, 19] | Blackgrass plant response rating [1, 20] | Plant response rating, Crabgrass [2, 19] | Crabgrass plant response rating [2, 21] | Giant foxtail plant response rating [8, 18] | Giant foxtail plant response rating [8, 22] | Giant foxtail plant response rating [8, 23] | Redroot pigweed plant response rating [12, 23] | Morningglory plant response rating [14, 23]
5: Rape plant response rating [6, 20] | Rape plant response rating [6, 24] | Wheat plant response rating [11, 22] | Wheat plant response rating [11, 23] | Redroot pigweed plant response rating [12, 18] | Redroot pigweed plant response rating [12, 22]
10: Blackgrass plant response rating [1, 24] | Crabgrass plant response rating [2, 20] | Crabgrass plant response rating [2, 23] | Crabgrass plant response rating [2, 24] | Plant response rating, Bedstraw [7, 19] | Bedstraw plant response rating [7, 20] | Bedstraw plant response rating [7, 24] | Plant response rating, Giant foxtail [8, 19] | Giant foxtail plant response rating [8, 20] | Giant foxtail plant response rating [8, 21] | Giant foxtail plant response rating [8, 24] | Redroot pigweed plant response rating [12, 20] | Redroot pigweed plant response rating [12, 24]
6: Blackgrass plant response rating [1, 22] | Blackgrass plant response rating [1, 23] | Soybean plant response rating [13, 22] | Soybean plant response rating [13, 23] | B. signalgrass plant response rating ([16]; Rate 500 g/ha, scale 0 to 10, 0 is no effect, 10 is complete control)
0: Plant response rating, Blackgrass [1, 17] | Plant response rating, Cocklebur [3, 17] | Plant response rating, Cocklebur [3, 19] | Cocklebur plant response rating [3, 20] | Cocklebur plant response rating [3, 21] | Cocklebur plant response rating [3, 24] | Plant response rating, Wild oats [4, 17] | Plant response rating, Wild oats [4, 19] | Wild oats plant response rating [4, 21] | Wild oats plant response rating [4, 22] | Wild oats plant response rating [4, 23] | Plant response rating, Velvetleaf [5, 17] | Plant response rating, Velvetleaf [5, 19] | Velvetleaf plant response rating [5, 20] | Velvetleaf plant response rating [5, 21] | Rape plant response rating [6, 21] | Plant response rating, Bedstraw [7, 17] | Bedstraw plant response rating [7, 18] | Bedstraw plant response rating [7, 21] | Plant response rating, Nutsedge [9, 17] | Nutsedge plant response rating [9, 18] | Plant response rating, Nutsedge [9, 19] | Nutsedge plant response rating [9, 21] | Nutsedge plant response rating [9, 22] | Nutsedge plant response rating [9, 23] | Nutsedge plant response rating [9, 24] | Plant response rating, Sugarbeets [10, 19] | Sugarbeets plant response rating [10, 21] | Plant response rating, Wheat [11, 17] | Plant response rating, Wheat [11, 19] | Wheat plant response rating [11, 20] | Wheat plant response rating [11, 21] | Wheat plant response rating [11, 24] | Plant response rating, Redroot pigweed [12, 17] | Redroot pigweed plant response rating [12, 21] | Plant response rating, Soybean [13, 19] | Soybean plant response rating [13, 20] | Soybean plant response rating [13, 21] | Soybean plant response rating [13, 24] | Plant response rating, Morningglory [14, 19] | Morningglory plant response rating [14, 20] | Morningglory plant response rating [14, 21] | Morningglory plant response rating [14, 24] | Plant response rating, Corn [15, 17] | Corn plant response rating [15, 18] | Plant response rating, Corn [15, 19] | Corn plant response rating [15, 20] | Corn plant response rating [15, 21] | Corn plant response rating [15, 22] | Corn plant response rating [15, 23] | Corn plant response rating [15, 24] | Plant response rating, B. signalgrass ([16]; Rate 62 g/ha, scale 0 to 10, 0 is no effect, 10 is complete control) | B. signalgrass plant response rating ([16]; Rate 125 g/ha, scale of 0 to 10 where 0 is no effect and 10 is complete control)
8: Crabgrass plant response rating [2, 22] | Wild oats plant response rating [4, 24] | Morningglory plant response rating [14, 22]
7: Wild oats plant response rating [4, 20]
4: Blackgrass plant response rating [1, 21] | Rape plant response rating [6, 22] | Rape plant response rating [6, 23] | Plant response rating, Soybean [13, 17]
